Patent US8815944B2, “Pharmaceutical composition with gelling properties containing a tyrosine derivative” (Ethypharm, priority 2008, dated 2014)
Counter-ions that a name gives are not always drawn.

What was measured:
Assay type in all cases: physicochemical
[1] = Differential scanning calorimetry (DSC) of organogels in safflower oil; details: organogelator 5% (w/w) in safflower oil; for H (enthalpy of the gel-solution transition): area of endothermic peak; for TGS (gel-solution transition temperature): maximum of endothermic peak
Description: (§1) Organogelators at a concentration of 5% (w/w) were solubilized in safflower oil at high temperature (>80° C.) and gels were obtained by cooling the mixture.
The gels were characterized by differential scanning calorimetry (DSC) to obtain gel-solution transition temperatures (TGS) and enthalpy values of the transition (ΔH). Briefly, thermograms of gels were collected on a 2910 TA Instruments DSC system (New Castle, Del.). The instrument was calibrated with indium. Gels were weighed into aluminum pans that were subsequently sealed. Temperature was scanned between 5 and 90° C. at 10° C./min. The reported gel-sol transition temperatures (TGS) and enthalpies (ΔH) corresponded to the maximum and the area of the endothermic peaks respectively.

[2] = Rheological analysis of the gels (gel hardness, complex modulus G*); details: organogelator 5% (w/w) in safflower oil; 25±0.1° C., 0.1 to 10 Hz
Description: as §1
Rheological analysis of the gels was performed to determine the gel hardness, by measuring the complex modulus G*. The rheological properties of the organogels were measured by an AR2000 (Advanced Rheometer 2000, TA Instruments, New Castle, Del.), with parallel plate geometry (diameter of 40 mm). Organogels were heated until reaching TGS and they were placed between the parallel plates. The final thickness of the material coat between the plates was 650 to 750 μm. The film was cooled at 4° C. to form the gel. In the linear regime of the gel, the complex modulus G* have been measured as a function of the angular frequency (0.1 to 10 Hz) at 25±0.1° C. G*=(G′^2+G″^2)^0.5 with G′ the storage modulus and G″ the loss modulus.

[3] = Stability after sterilization by γ-radiation, by 1H-NMR; details: γ-radiation at 25 kGy on dry ice, 60Co source
Description: All formulation components were sterilized individually. B-TyrOCH3 and rivastigmine hydrogen tartrate (Riv) were sterilized on dry ice by γ-radiation at 25 kGy using a ^60Co source (Nordion Inc., Laval, QC, Canada). Stability of the organogelator and drug after sterilization was confirmed by ^1H-NMR. The safflower oil and NMP were filtered on 0.2-μm polytetrafluoroethylene filters. Safflower oil, B-TyrOCH3 (5% w/w) and Rivastigmine were mixed at 85° C. until solubilisation of the organogelator. N-methylpyrrolidone (NMP) (3% w/w) was added at high temperature, mixed and gel formulation syringes (20 G needle) were prepared, under aseptic conditions and put on ice during 15 minutes and at room temperature before injection. A control formulation was prepared without the organogelator in the same condition (oil formulation).

Row | SMILES | H (enthalpy of the gel-solution transition) [1] [kcal/mol] | TGS (gel-solution transition temperature) [1] [°C] | G* (complex modulus, gel hardness) [2] [kPa] | Stability after sterilization [3]
1 | CCCCCCCCCCCCCCCCCCCCCC(=O)N[C@@H](Cc1ccccc1)C(=O)OC [B-Phe-OCH3] | 14.6 | 53 | 6 | 
2 | CCCCCCCCCCCCCCCCCCCCCC(=O)N[C@@H](Cc1ccc(O)cc1)C(=O)OC [B-Tyr-OCH3, N-Behenoyl L-tyrosine methyl ester] | 17 | 74 | 37.6 | 
3 | CCCCCCCCCCCCCCCCCC(=O)NC(C)C(=O)OC (stereo not shown) [S-Ala-OCH3] | 13.1 | 60 | 5 | 
4 | CCCCCCCCCCCCCCCCCC(=O)N[C@@H](Cc1ccccc1)C(=O)OC [S-Phe-OCH3, N-stearoyl L-phenylalanine methyl ester] | 9.08 | 43 | 6.1 | 
5 | CCCCCCCCCCCCCCCCCC(=O)N[C@@H](Cc1c[nH]c2ccccc12)C(=O)OC [S-Trp-OCH3, N-stearoyl L-tryptophan methyl ester] | 5.5 | 56 | <0.1 | 
6 | CCCCCCCCCCCCCCCCCC(=O)N[C@@H](Cc1c[nH]c2ccccc12)C(=O)O [S-Trp-OH, N-stearoyl L-tryptophan] | 3.82 | 122 | <0.1 | 
7 | CCCCCCCCCCCCCCCCCC(=O)N[C@@H](Cc1ccc(O)cc1)C(=O)OC [S-Tyr-OCH3, N-Stearoyl L-tyrosine methyl ester] | 12 | 65 | 15.2 | 
8 | CCCCCCCCCCCCCCCCCC(=O)N[C@@H](Cc1ccc(O)cc1)C(=O)O [S-Tyr-OH, N-stearoyl L-tyrosine] | 4.3 | 127 | 5 | 
9 | CCN(C)C(=O)Oc1cccc([C@H](C)N(C)C)c1 [rivastigmine hydrogen tartrate] |  |  |  | confirmed
